Laboratory results reported in patent US8192962B2, “Processes for detecting toxic substances” (Daikin Industries, Ltd., priority 2001, dated 2012).

Test system: Genes belonging to other category
Assay: DNA chip mRNA expression in yeast, genes belonging to other category (Table 9)
Format: cell-based, Saccharomyces cerevisiae S288C
Experimental: Yeast (Saccharomyces cerevisiae S288C (α SUC2mal mel gap2 CUP1)) were incubated at 25° C. on YPD medium (yeast extract 1%, polypepton 2%, glucose 2%). One of toxic chemical substances was added to the cells at logarithmic growth phase, and the cells were further incubated for two hours. Cells were cultured without any chemical substance in the same condition, and were used as control. Concentrations of the chemical substances were defined to inhibit the growth of the yeast but not lead to death.
After completion of the incubation, the culture was centrifuged to collect the cells. To the cells, sodium acetate buffer (50 mM sodium acetate, 10 mM EDTA, 1% SDS) was added, and the mixture was shaken at 65° C. for five minutes, followed by returning to room temperature, and obtaining the supernatant, of which the procedures were repeated two times. To the supernatant, ½ amount of a solution of phenol/chloroform was added, and the mixture was centrifuged to give a supernatant, which was added with an equal amount of chloroform, and the mixture was centrifuged to give a supernatant. To the supernatant, an equal amount of isopropanol containing 0.3 M sodium acetate was added, and the mixture was allowed to stand at room temperature for 30 minutes, after which the mixture was centrifuged to give a sediment of the whole RNAs. Seventy % ethanol was added to the sediment, and the mixture was again centrifuged to give a sediment, which was then dried and dissolved in water. mRNA was isolated from the whole RNAs as followings. In view of the fact that a poly A chain is attached to the 3′ terminus of mRNA, a polynucleotide having a poly T structure which was immobilized on the surface of latex beads was used to trap the mRNA, and then the mRNA was washed and eluted with spine column (Oligotex-dT30<Super>mRNA Purification Kit, Takara). Reverse transcription of the mRNA was conducted with a reverse transcriptase (Super Script II Reverse Transcriptase; catalogue No. 18064-014, GibcoBRL) using fluorescence-labeled nucleotides to give cDNAs that were introduced with Cy3-dUTP or Cy5-dUTP during the reverse transcription.
The labeled cDNAs were dissolved in TE buffer (10mM Tris-HCl/1 mM EDTA, pH8.0), and the solution was dropped on the DNA chip containing the whole genes of yeast (DNA Chip Research Inc. Japan) so that the cDNAs were hybridized on the DNA chip at 65° C. for over 12 hours. The fluoresces intensity of the DNA chip was read with a scanner, and the ratio relative to the fluorescence intensity resulting from the absence of chemical substance was estimated as the following, which is shown in Tables 1 to 9: […]

Oc1cc(Cl)c(Cl)cc1Cl [(6), 2,4,5-trichlorophenol]
The level of expressed mRNA in the presence of chemical substance/The level of expressed mRNA in the absence of chemical substance (yeast gene YER039C): 1.6 | The level of expressed mRNA in the presence of chemical substance/The level of expressed mRNA in the absence of chemical substance (yeast gene YER078C): 1.4 | The level of expressed mRNA in the presence of chemical substance/The level of expressed mRNA in the absence of chemical substance (yeast gene YER094C): 1.1 | The level of expressed mRNA in the presence of chemical substance/The level of expressed mRNA in the absence of chemical substance (yeast gene YER107C): 2.5 | The level of expressed mRNA in the presence of chemical substance/The level of expressed mRNA in the absence of chemical substance (yeast gene YER130C): 2.7 | The level of expressed mRNA in the presence of chemical substance/The level of expressed mRNA in the absence of chemical substance (yeast gene YFL022C): 0.9 | The level of expressed mRNA in the presence of chemical substance/The level of expressed mRNA in the absence of chemical substance (yeast gene YFL028C): 1.7 | The level of expressed mRNA in the presence of chemical substance/The level of expressed mRNA in the absence of chemical substance (yeast gene YFL038C): 1.3 | The level of expressed mRNA in the presence of chemical substance/The level of expressed mRNA in the absence of chemical substance (yeast gene YFL043C): 1.8 | The level of expressed mRNA in the presence of chemical substance/The level of expressed mRNA in the absence of chemical substance (yeast gene YFR051C): 0.2 | The level of expressed mRNA in the presence of chemical substance/The level of expressed mRNA in the absence of chemical substance (yeast gene YGL056C): 0.4 | The level of expressed mRNA in the presence of chemical substance/The level of expressed mRNA in the absence of chemical substance (yeast gene YGL093W): 1.0 | The level of expressed mRNA in the presence of chemical substance/The level of expressed mRNA in the absence of chemical substance (yeast gene YGL150C): 1.1 | The level of expressed mRNA in the presence of chemical substance/The level of expressed mRNA in the absence of chemical substance (yeast gene YGL158W): 0.4 | The level of expressed mRNA in the presence of chemical substance/The level of expressed mRNA in the absence of chemical substance (yeast gene YGL166W): 1.0 | The level of expressed mRNA in the presence of chemical substance/The level of expressed mRNA in the absence of chemical substance (yeast gene YGL229C): 2.2 | The level of expressed mRNA in the presence of chemical substance/The level of expressed mRNA in the absence of chemical substance (yeast gene YGR136W): 1.1 | The level of expressed mRNA in the presence of chemical substance/The level of expressed mRNA in the absence of chemical substance (yeast gene YGR189C): 0.5 | The level of expressed mRNA in the presence of chemical substance/The level of expressed mRNA in the absence of chemical substance (yeast gene YGR213C): 4.1 | The level of expressed mRNA in the presence of chemical substance/The level of expressed mRNA in the absence of chemical substance (yeast gene YGR253C): 1.4 | The level of expressed mRNA in the presence of chemical substance/The level of expressed mRNA in the absence of chemical substance (yeast gene YGR257C): 2.1 | The level of expressed mRNA in the presence of chemical substance/The level of expressed mRNA in the absence of chemical substance (yeast gene YHR004C): 2.0 | The level of expressed mRNA in the presence of chemical substance/The level of expressed mRNA in the absence of chemical substance (yeast gene YHR027C): 0.4 | The level of expressed mRNA in the presence of chemical substance/The level of expressed mRNA in the absence of chemical substance (yeast gene YHR028C): 0.9 | The level of expressed mRNA in the presence of chemical substance/The level of expressed mRNA in the absence of chemical substance (yeast gene YHR071W): 2.0 | The level of expressed mRNA in the presence of chemical substance/The level of expressed mRNA in the absence of chemical substance (yeast gene YHR082C): 0.8 | The level of expressed mRNA in the presence of chemical substance/The level of expressed mRNA in the absence of chemical substance (yeast gene YHR136C): 1.4 | The level of expressed mRNA in the presence of chemical substance/The level of expressed mRNA in the absence of chemical substance (yeast gene YHR139C): 1.9 | The level of expressed mRNA in the presence of chemical substance/The level of expressed mRNA in the absence of chemical substance (yeast gene YHR142W): 1.2 | The level of expressed mRNA in the presence of chemical substance/The level of expressed mRNA in the absence of chemical substance (yeast gene YHR160C): 1.0 | The level of expressed mRNA in the presence of chemical substance/The level of expressed mRNA in the absence of chemical substance (yeast gene YHR166C): 1.8 | The level of expressed mRNA in the presence of chemical substance/The level of expressed mRNA in the absence of chemical substance (yeast gene YHR205W): 1.0 | The level of expressed mRNA in the presence of chemical substance/The level of expressed mRNA in the absence of chemical substance (yeast gene YIL015W): 0.4 | The level of expressed mRNA in the presence of chemical substance/The level of expressed mRNA in the absence of chemical substance (yeast gene YIL075C): 0.8 | The level of expressed mRNA in the presence of chemical substance/The level of expressed mRNA in the absence of chemical substance (yeast gene YIL123W): 0.5 | The level of expressed mRNA in the presence of chemical substance/The level of expressed mRNA in the absence of chemical substance (yeast gene YIL129C): 0.3 | The level of expressed mRNA in the presence of chemical substance/The level of expressed mRNA in the absence of chemical substance (yeast gene YIL140W): 0.5 | The level of expressed mRNA in the presence of chemical substance/The level of expressed mRNA in the absence of chemical substance (yeast gene YIL142W): 1.1 | The level of expressed mRNA in the presence of chemical substance/The level of expressed mRNA in the absence of chemical substance (yeast gene YIR009W): 1.4 | The level of expressed mRNA in the presence of chemical substance/The level of expressed mRNA in the absence of chemical substance (yeast gene YJL073W): 2.0 | The level of expressed mRNA in the presence of chemical substance/The level of expressed mRNA in the absence of chemical substance (yeast gene YJL089W): 1.6 | The level of expressed mRNA in the presence of chemical substance/The level of expressed mRNA in the absence of chemical substance (yeast gene YJL116C): 3.4
